Values of other authors, collected in patent publication US20090048301A1 (IMCLONE SYSTEMS INCORPORATED, priority 2003, published 2009).

Tests used:
[1] = Cancer Research 61, 392, 2001; cited from earlier work
[2] = system: MDR cells; details: Cancer Research 61, 392, 2001; cited from earlier work
[3] = system: tumor vasculature; details: Cancer Research 59, 1626 (1999); cited from earlier work

SMILES | antitumor activity in vivo [1] | neurotoxicity [1] | efficacy toward MDR cells [2] | effect on tumor vasculature and necrosis in mouse tumor models [3]
O=C(Nc1ccncc1)C(=O)c1cn(Cc2ccc(Cl)cc2)c2ccccc12 [Compound D-24851] | exert antitumor activity in vivo | lacks neurotoxicity | shows efficacy toward MDR cells | 
COc1ccc(/C=C\c2cc(OC)c(OC)c(OC)c2)cc1OP(=O)(O)O [Combretastatin A-4 phosphate] |  |  |  | change endothelial cell morphology, shut down tumor vasculature, and induce tumor necrosis
